Reference: patent US7829552B2, “Phosphorus-containing thyromimetics” (Metabasis Therapeutics, Inc., priority 2003, dated 2010)

What was measured:
[1] = tested on: Normal rats (Sprague-Dawley); test: Subacute studies in normal rats, continuous infusion by osmotic pump: liver/heart mGPDH activity, heart weight; assay type: in vivo, rat; conditions: continuous infusion 1 mg/kg/day
Text: Efficacy endpoints include serum cholesterol, liver mitochondrial glycerol phosphate dehydrogenase (mGPDH) activity and the expression of relevant liver genes (e.g., the LDL-receptor, apoB, cpt-1, spot14 and apoAI). Safety parameters include heart weight, heart rate, heart mGPDH activity, the expression and key genes involved in cardiac structure and function (e.g., Serca2, HCN2, Kv1.5, MHCα, MHCβ, Alpha1c), and standard plasma chemistry analysis (liver enzymes, electrolytes, creatinine). Endocrine effects are monitored by analysis of serum thyroid stimulating hormone (TSH). [Taylor et al., Mol Pharmacol 52(3): 542-7 (1997); Weitzel et al., Eur Biochem 268(14):4095-4103 (2001)]
Methods: mGPDH activity was analyzed in isolated mitochondria using 2-(4-iodophenyl)-3-(4-nitrophenyl)-5-phenyl tetrazolium chloride as the terminal electron acceptor (Gardner R S, Analytical Biochemistry 59:272 (1974)). Commercially available GPDH was used in each assay as a standard (Sigma, St. Louis, Mo.). Changes in levels of mRNA for liver and heart genes are analyzed using reverse transcriptase followed by real-time PCR analysis. The analysis is performed using an iCycler instrument (Biorad) and appropriate primers by means of standard methodology [e.g., Schwab D A et al. (2000) Life Sciences 66: 1683-94]. The amounts of mRNA are normalized to an internal control, typically, cyclophilin. Serum TSH is measured using an enzyme immunoassay (EIA) kit designed for rat TSH (Amersham Pharmacia Biotech, Arlington Heights, Ill.).
Normal rats (Sprague-Dawley) were maintained on a standard diet. […] The compounds were brought up to an appropriate volume using PBS and BSA to maintain solubility within the pump. The compounds were chemically stable in the excipient at 37° C. for 7 days.
Values are expressed as percent of control. (Table 4)

[2] = tested on: Normal rats; test: Hepatic triglyceride content in normal rats chronically infused for 7 days; assay type: in vivo, rat
Experimental: Normal rats were chronically infused with Compound 7 for 7 days. Liver triglycerides were analyzed following lipid extraction by the Bligh Dyer method (Bligh E G and Dyer W J, A rapid method of total lipid extraction and purification. Can J Med. Sci. 1959 (August); 37(8):911-7, incorporated herein by reference). Total triglycerides were analyzed in the liver extracts by an enzymatic assay (Thermo Electron Corporation). Total lipid was normalized to initial liver weight and triglyceride content was normalized to liver weight. […] There was a 4% reduction in liver triglycerides for this group and the results were not statistically significant.

[3] = tested on: Hypercholesterolemic rats; test: Cholesterol lowering in hypercholesterolemic (cholesterol-fed) rats; assay type: in vivo, rat; conditions: for cholesterol lowering: hypercholesterolemic rats, 0.5 mg/kg/d orally; for efficacy in lowering cholesterol: another experiment, dose and route not given
Experimental: Plasma cholesterol values were assessed prior to and following treatment and the effects of compound were expressed as a percentage change from the pre-dose cholesterol levels. […] Compounds were routinely tested for oral efficacy at a dose of 0.5 mg/kg/d. Hypercholesterolemic rats were treated with vehicle, Compound 13-1-cis (a HepDirect version of Compound 7), Compound 19-1 (a diethyl ester of Compound 19-2), Compound 13-9 (a HepDirect version of Compound 19-2), Compound 12-5 (a bisPom version of compound 19-2), or Compound 15-5 (a bisamidate version of Compound 19-2) at 0.5 mg/kg/d orally. Compound 13-1-cis has been extensively characterized and was used as the positive control for the assay.

[4] = molecular target: T1, human thyroid hormone receptors TRα1 (Homo sapiens, UniProt P10827); test: Receptor binding, scintillation proximity assay (SPA) with labeled T3; T3 binding also by gel filtration; conditions: SPA data; read-out: Ki TRα
T1 construct: made in house; host or cells: Sf9 insect cells (baculovirus co-infection of TR and RXRα), cell lysate
T1 sequence (P10827 1-410 isoform P10827-2): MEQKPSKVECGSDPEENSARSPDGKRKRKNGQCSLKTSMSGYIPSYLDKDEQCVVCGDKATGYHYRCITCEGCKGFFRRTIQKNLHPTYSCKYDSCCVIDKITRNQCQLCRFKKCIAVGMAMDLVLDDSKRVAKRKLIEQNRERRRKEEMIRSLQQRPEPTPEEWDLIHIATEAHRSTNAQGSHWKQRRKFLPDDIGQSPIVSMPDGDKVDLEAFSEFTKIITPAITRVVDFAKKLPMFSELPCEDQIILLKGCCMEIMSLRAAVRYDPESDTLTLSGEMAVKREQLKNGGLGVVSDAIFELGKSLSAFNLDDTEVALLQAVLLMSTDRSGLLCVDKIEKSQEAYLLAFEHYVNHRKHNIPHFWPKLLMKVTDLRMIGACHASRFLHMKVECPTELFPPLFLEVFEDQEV
T1 sequence (P19793 1-462 partner): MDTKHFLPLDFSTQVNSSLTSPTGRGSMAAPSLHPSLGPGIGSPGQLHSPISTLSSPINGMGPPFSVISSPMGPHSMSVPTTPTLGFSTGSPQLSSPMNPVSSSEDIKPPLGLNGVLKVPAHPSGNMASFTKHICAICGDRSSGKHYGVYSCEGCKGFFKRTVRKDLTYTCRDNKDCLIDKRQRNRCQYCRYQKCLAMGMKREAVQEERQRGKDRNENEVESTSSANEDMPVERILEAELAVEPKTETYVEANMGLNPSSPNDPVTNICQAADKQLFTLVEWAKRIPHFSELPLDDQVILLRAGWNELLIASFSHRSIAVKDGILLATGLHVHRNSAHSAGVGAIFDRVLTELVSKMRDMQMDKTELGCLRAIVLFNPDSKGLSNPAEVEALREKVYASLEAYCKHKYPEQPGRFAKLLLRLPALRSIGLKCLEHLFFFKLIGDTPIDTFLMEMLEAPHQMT
Experimental: (§1) Methods: Baculoviruses expressing TRα1, TRβ1 and RXRα were generated using cDNA and other reagents from Invitrogen (Carlsbad, Calif.). To produce TR/RXR heterodimer proteins, the sf9 insect cells were first grown to a density of 1−5×10^5 cells/mL. TRα1 or TRβ1 and RXRα baculovirus stocks were added to the cell culture with a ratio of 1 to 1 (multiplicity of infection=10). The cells were harvested three days after the infection.
(§2) Binding of compounds to either the TRα1 or TRβ1 were also performed by means of scintillation proximity assays (SPA). The SPA assay, a common method used for the quantitation of receptor-ligand equilibria, makes use of special beads coated with a scintillant and a capture molecule, copper, which binds to the histidine-tagged α or β receptor.

[5] = molecular target: T2, human thyroid hormone receptors TRβ1 (Homo sapiens, UniProt P10828); test: as above; conditions: SPA data; read-out: Ki TRβ
T2 construct: made in house; host or cells: Sf9 insect cells (baculovirus co-infection of TR and RXRα), cell lysate
T2 sequence (P10828 1-461): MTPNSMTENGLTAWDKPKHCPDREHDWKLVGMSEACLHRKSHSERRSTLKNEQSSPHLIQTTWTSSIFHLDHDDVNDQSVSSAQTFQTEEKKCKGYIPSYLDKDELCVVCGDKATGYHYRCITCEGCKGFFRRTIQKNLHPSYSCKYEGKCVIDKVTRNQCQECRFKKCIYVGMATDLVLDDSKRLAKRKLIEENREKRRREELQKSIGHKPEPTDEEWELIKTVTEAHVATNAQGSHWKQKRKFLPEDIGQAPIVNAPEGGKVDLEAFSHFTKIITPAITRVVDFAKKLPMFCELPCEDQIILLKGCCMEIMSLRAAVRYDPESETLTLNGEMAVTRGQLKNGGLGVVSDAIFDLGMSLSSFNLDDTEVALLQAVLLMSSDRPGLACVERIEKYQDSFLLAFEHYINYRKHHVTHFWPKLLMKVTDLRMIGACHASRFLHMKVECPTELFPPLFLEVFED
T2 sequence (P19793 1-462 partner): T1 sequence (P19793 1-462 partner)
Experimental: as §1, §2

[6] = tested on: cholesterol-fed rat; test: Subacute studies in cholesterol-fed rats, IP once-a-day for seven days: serum cholesterol, heart weight, heart GPDH
Experimental: The cholesterol-fed rat is an animal model of hypercholesterolemia generated by feeding the animals a diet with high cholesterol content.
Serum cholesterol values were assessed and the animals randomized into groups for treatment.

[7] = tested on: cholesterol-fed rat; conditions: cited from earlier work
[8] = tested on: Sprague Dawley (SD) rat; test: Cardiovascular activity of T3 mimetics in the Sprague Dawley rat, oral 7 days; assay type: in vivo; conditions: SD rats, p.o. 7 days, Compound 18 1 mg/kg, Compound cis-13-1 1-50 mg/kg/day
Text: Method: […] The control group (n=6) was given vehicle only. […] On the 7th day after the start of dosing, animals were anesthetized with Isoflurane and the left ventricle cannulated with a high fidelity catheter tip transducer via the right carotid artery. Left ventricular pressure, its first derivative (LVdP/dt), lead I ECG, and heart rate (HR) triggered off the ECG waveform, were digitally recorded. LV dP/dt is a well accepted measure of ionotropic state. Systolic and diastolic aortic pressures were measured by retracting the catheter into the proximal aorta.

[9] = animals, e.g., rodent models and monkeys; cited from earlier work

N[C@@H](Cc1cc(I)c(Oc2ccc(O)c(I)c2)c(I)c1)C(=O)O [Compound T3, triiodothyronine]
Heart GPDH [1]: 284% of control
Heart weight [1]: 146% of control
Liver GPDH [1]: 406% of control
decrease in hepatic triglyceride content [2]: 4%

CCOC(=O)[C@H](C)NP(=O)(Cc1cc(Br)c(Oc2ccc(O)c(C(C)C)c2)c(Br)c1)N[C@@H](C)C(=O)OCC [Compound 15-5, Di-N-(L-1-ethoxycarbonylethylamino)[3,5-dibromo-4-(4′-hydroxy-3′-iso-propylphenoxy)benzyl]phosphonamide]
cholesterol lowering [3]: significant lowering of cholesterol

CCOP(=O)(Cc1cc(Br)c(Oc2ccc(O)c(C(C)C)c2)c(Br)c1)OCC [Compound 19-1]
change in vivo at 0.5 mg/kg/day ([3]; Rattus norvegicus, po, read-out: % Cholesterol Lowering): -6.56%

Cc1cc(CCP(=O)(O)O)cc(C)c1Cc1ccc(F)c(C(C)C)c1 [Compound 42-2]
Ki [4]: > 2000 nM
Ki [5]: > 2000 nM

CC(C)c1cc(Oc2c(Br)cc(CP(=O)(OCOC(=O)C(C)(C)C)OCOC(=O)C(C)(C)C)cc2Br)ccc1O [Compound 12-5, Di-(pivaloyloxymethyl)[3,5-dibromo-4-(4′-hydroxy-3′-iso-propylphenoxy)benzyl]phosphonate]
cholesterol lowering [3]: significant lowering of cholesterol

Cc1cc(OCC(=O)O)cc(C)c1Cc1ccc(O)c(C(C)C)c1 [Compound 17, [3,5-dimethyl-4-(4′-hydroxy-3′-iso-propylbenzyl)phenoxy]acetic Acid]
serum cholesterol ([6]; 0.1-1 mg/kg/day, IP once-a-day for seven days): significantly decreased serum cholesterol
therapeutic window (separation between cholesterol lowering and cardiac toxicity) ([6]; cholesterol-fed rats): no separation between efficacy (cholesterol lowering) and toxicity
cardiac hypertrophy ([6]; cholesterol-fed rats, IP seven days, Compound 17 0.1-1 mg/kg/day, Compound 7 all doses): Undesirable cardiac hypertrophy was observed

CC(C)c1cc(Oc2c(Cl)cc(CC(=O)O)cc2Cl)ccc1O [Compound 18, 3,5-dichloro-4-[4′-hydroxy-3′-iso-propylphenoxy]benzeneacetic Acid, reference compound]
therapeutic index (TI) with respect to heart rate increases [7]: 40
Heart weight ([8]; vs control): significantly increased
heart weight normalized to body weight ([8]; vs control): significantly increased
HR ([8]; vs vehicle): marked and statistically significant increases
LV dP/dt ([8]; vs vehicle): marked and statistically significant increases
systolic aortic pressure ([8]; vs vehicle): marked and statistically significant increases
weight loss [9]: result in weight loss in animals

Cc1cc(OC[P@@]2(=O)OCC[C@@H](c3cccc(Br)c3)O2)cc(C)c1Cc1ccc(O)c(C(C)C)c1 [Compound 13-2-cis, 2-[(3,5-dimethyl-4-(4′-hydroxy-3′-iso-propylbenzyl)phenoxy)methyl]-4-(3-bromophenyl)-2-oxo-2λ^5-[1,3,2]-dioxaphosphonane]
efficacy in lowering cholesterol [3]: not efficiacous

CC(C)c1cc(Oc2c(Cl)c(F)nc(NCP(=O)(OCOC(=O)C(C)(C)C)OCOC(=O)C(C)(C)C)c2Cl)ccc1O [Compound 12-9]
efficacy in lowering cholesterol [3]: not efficiacous
